Publication PMC10202051, “Molecular basis of differential HLA class I-restricted T cell recognition of a highly networked HIV peptide” (Nature Communications, 2023)

System: autologous B cells lysed by CTL Clone 3
Assay: Chromium release assay with QW9-B53 specific CTL clone C3
Format: cell-based, human
Conditions: effector/target 1:1, technical replicate

Sequence: QATQEVKNW [QW9_S3T]
- lysis of autologous B cells (experiment-1): 6.79
- lysis of autologous B cells (experiment-2): 6.64
- lysis of autologous B cells (experiment-3): 6.63
- lysis of autologous B cells (experiment-4): 6.38
- lysis of autologous B cells (experiment-5): 6.72
- lysis of autologous B cells (experiment-6): 7.02
- lysis of autologous B cells (experiment-7): 6.68
- lysis of autologous B cells (experiment-8): 6.3
